Laboratory results: article PMC4234429 (Journal of Medicinal Chemistry, 2014)
Bridge positions count the residues as written; N and C are the ends. Square brackets hold non-standard residues; d marks the D form. Peptide text beside a SMILES is read from it. Nle = CCCC[C@H](N)C(=O)O; βAla = NCCC(=O)O

Assay: RP-HPLC capacity factor
Type: physicochemical
Conditions: Grace Vydac C-18, 20 min gradient of 18–28% acetonitrile in 20 mM HCl, 1 mL/min

Structure (SMILES) | capacity factor (k′)
CC(C)[C@H](NC(=O)[C@@H]1CCCN1C(=O)[C@H](CCCNC(=N)N)NC(=O)[C@H](CS)NC(=O)[C@H](Cc1c[nH]c2ccccc12)NC(=O)[C@H](CCCNC(=N)N)NC(=O)[C@@H](Cc1ccccc1)NC(=O)[C@H](Cc1c[nH]cn1)NC(=O)[C@H](CCC(=O)O)NC(=O)[C@H](CS)NC(=O)[C@H](CS)NC(=O)CCNC(=O)[C@@H]1CC(=O)N[C@@H](CCCNC(=N)N)C(=O)N[C@@H](C)C(=O)N[C@@H](CC(=O)O)C(=O)N[C@H](Cc2ccc(O)cc2)C(=O)N1)C(N)=O [peptide 4, RAD-β-Ala-(Arg^11)CCMSH] (RAD[dY]D[βAla]CCEH[dF]RWCRPV-NH2; lactam N-5) | 3.32
CC(C)[C@H](NC(=O)[C@@H]1CCCN1C(=O)[C@H](CCCNC(=N)N)NC(=O)[C@H](CS)NC(=O)[C@H](Cc1c[nH]c2ccccc12)NC(=O)[C@H](CCCNC(=N)N)NC(=O)[C@@H](Cc1ccccc1)NC(=O)[C@H](Cc1c[nH]cn1)NC(=O)[C@H](CCC(=O)O)NC(=O)[C@H](CS)NC(=O)[C@H](CS)NC(=O)CCNC(=O)[C@@H]1CC(=O)N[C@@H](CCC(=O)O)C(=O)N[C@@H](C)C(=O)N[C@@H](CC(=O)O)C(=O)N[C@H](Cc2ccc(O)cc2)C(=O)N1)C(N)=O [peptide 6, EAD-β-Ala-(Arg^11)CCMSH] (EAD[dY]D[βAla]CCEH[dF]RWCRPV-NH2; lactam N-5) | 2.28
CCCC[C@@H]1NC(=O)C[C@@H](C(=O)NCCC(=O)N[C@@H](CS)C(=O)N[C@@H](CS)C(=O)N[C@@H](CCC(=O)O)C(=O)N[C@@H](Cc2c[nH]cn2)C(=O)N[C@H](Cc2ccccc2)C(=O)N[C@@H](CCCNC(=N)N)C(=O)N[C@@H](Cc2c[nH]c3ccccc23)C(=O)N[C@@H](CS)C(=O)N[C@@H](CCCNC(=N)N)C(=O)N2CCC[C@H]2C(=O)N[C@H](C(N)=O)C(C)C)NC(=O)[C@@H](Cc2ccc(O)cc2)NC(=O)[C@H](CC(=O)O)NC(=O)[C@H](C)NC1=O [peptide 5, NAD-β-Ala-(Arg^11)CCMSH] ([Nle]AD[dY]D[βAla]CCEH[dF]RWCRPV-NH2; lactam N-5) | 3.17
CC(C)[C@H](NC(=O)[C@@H]1CCCN1C(=O)[C@H](CCCNC(=N)N)NC(=O)[C@H](CS)NC(=O)[C@H](Cc1c[nH]c2ccccc12)NC(=O)[C@H](CCCNC(=N)N)NC(=O)[C@@H](Cc1ccccc1)NC(=O)[C@H](Cc1c[nH]cn1)NC(=O)[C@H](CCC(=O)O)NC(=O)[C@H](CS)NC(=O)[C@H](CS)NC(=O)CCNC(=O)[C@@H]1CC(=O)N[C@@H](CCCNC(=N)N)C(=O)N[C@@H]([C@@H](C)O)C(=O)N[C@@H](CC(=O)O)C(=O)N[C@H](Cc2ccc(O)cc2)C(=O)N1)C(N)=O [peptide 2, RTD-β-Ala-(Arg^11)CCMSH] (RTD[dY]D[βAla]CCEH[dF]RWCRPV-NH2; lactam N-5) | 0.98
CC(C)[C@H](NC(=O)[C@@H]1CCCN1C(=O)[C@H](CCCNC(=N)N)NC(=O)[C@H](CS)NC(=O)[C@H](Cc1c[nH]c2ccccc12)NC(=O)[C@H](CCCNC(=N)N)NC(=O)[C@@H](Cc1ccccc1)NC(=O)[C@H](Cc1c[nH]cn1)NC(=O)[C@H](CCC(=O)O)NC(=O)[C@H](CS)NC(=O)[C@H](CS)NC(=O)CCNC(=O)[C@@H]1CC(=O)N[C@@H](CCCNC(=N)N)C(=O)N[C@@H](C(C)C)C(=O)N[C@@H](CC(=O)O)C(=O)N[C@H](Cc2ccc(O)cc2)C(=O)N1)C(N)=O [peptide 3, RVD-β-Ala-(Arg^11)CCMSH] (RVD[dY]D[βAla]CCEH[dF]RWCRPV-NH2; lactam N-5) | 1.94
CC(C)[C@H](NC(=O)[C@@H]1CCCN1C(=O)[C@H](CCCNC(=N)N)NC(=O)[C@H](CS)NC(=O)[C@H](Cc1c[nH]c2ccccc12)NC(=O)[C@H](CCCNC(=N)N)NC(=O)[C@@H](Cc1ccccc1)NC(=O)[C@H](Cc1c[nH]cn1)NC(=O)[C@H](CCC(=O)O)NC(=O)[C@H](CS)NC(=O)[C@H](CS)NC(=O)CCNC(=O)[C@@H]1CC(=O)N[C@@H](CCCNC(=N)N)C(=O)N[C@@H](CO)C(=O)N[C@@H](CC(=O)O)C(=O)N[C@H](Cc2ccc(O)cc2)C(=O)N1)C(N)=O [peptide 1, RSD-β-Ala-(Arg^11)CCMSH] (RSD[dY]D[βAla]CCEH[dF]RWCRPV-NH2; lactam N-5) | 1.35
